Earlier results in PMC8854719, “Phase 1A/1B dose-escalation and -expansion study to evaluate the safety, pharmacokinetics, food effects and antitumor activity of pamiparib in advanced solid tumours” (British Journal of Cancer, 2021).
Where two headings read alike, the source gives them in different places.

Assays:
ovarian cancer = details: Phase 2 studies, BRCAmut ovarian cancer after prior platinum-based chemotherapy; cited from earlier work
[1] = cited from earlier work
[2] = other monotherapy studies in advanced cancer (rucaparib: anaemia/decreased haemoglobin)
[3] = separate Phase 3 trials in ovarian cancer

Structure (SMILES): NC(=O)c1cccc2cn(-c3ccc([C@@H]4CCCNC4)cc3)nc12 [niraparib]
- ORR (ovarian cancer): 28.0%
- Anaemia, Grade ≥3 [1, 2]: 24%
- Anaemia, Grade ≥3 [1, 3]: 25%
- Anaemia, any Grade [1, 3]: 50%

Structure (SMILES): O=C(c1cc(Cc2n[nH]c(=O)c3ccccc23)ccc1F)N1CCN(C(=O)C2CC2)CC1 [olaparib]
- ORR (ovarian cancer): 31.1%
- Anaemia, Grade ≥3 [1, 2]: 17%
- Anaemia, Grade ≥3 [1, 3]: 19%
- Anaemia, any Grade [1, 3]: 44%

Structure (SMILES): CNCc1ccc(-c2[nH]c3cc(F)cc4c3c2CCNC4=O)cc1 [rucaparib]
- ORR (ovarian cancer): 53.8%
- Anaemia, Grade ≥3 [1, 2]: 24.9%
- Anaemia, Grade ≥3 [1, 3]: 19%
- Anaemia, any Grade [1, 3]: 37%
